Tested on: C. violaceum 026 sensor strain with AHL producer E. cloacae 31298
Experiment: Quorum sensing inhibition (agar diffusion, violacein production)
Assay type: cell-based, Chromobacterium violaceum
Settings: disc with 10 μL of 1 mM stock; reduction of violacein zone
Method: The following bacterial strains were applied in the QS tests: C. violaceum 026 as sensor strain and E. cloacae 31298 isolated from clinical wound (used as N-acyl-homoserine lactone (AHL) producer); this strain induced pigment production by C. violaceum and is a model strain to study QS interactions.
LB* was applied for these experiments. The sensor strain C. violaceum 026 and the AHL producer strains E. cloacae 31298 were inoculated as parallel lines and incubated at room temperature for 24–48 h. The inhibition of bacterial communication was determined by the agar diffusion method. Filter paper discs (7.0 mm in diameter) were impregnated with 10 μL of stock solutions (1 mM) of the compounds in DMSO. The discs were placed between the parallel lines of the sensor and the AHL producer strains. The plates were kept at room temperature for another 24–48 h, and the interactions between the strains and compounds were determined as the reduction in the size of the zone of purple pigment (violacein) production in millimeters. PMZ was applied as a positive control.

Compound	Inhibition zone (quorum sensing) [mm]
O=C(Cc1nc2ccccc2o1)C(F)F [Compound 3]	56
[O-]C(=Cc1nc2ccccc2o1)C(F)(F)Cl.[O-]C(=Cc1nc2ccccc2o1)C(F)(F)Cl.[Zn+2] [Compound 5]	16
